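Test compounds were applied to cells in 96-well plates for 48 hours at 5 doses. GI50 = concentration required for 50% inhibition of growth. TGI is the concentration that stops growth completely.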 Where a SMILES comes first, the peptide text is derived from it.
Legend:
Experiment in all cases: growth of human tumour cells (NCI), 48 h
[1] = system: BT-549 breast
[2] = system: CAKI-1 renal
[3] = system: EKVX NSCLC
[4] = system: HT29 colon
[5] = system: IGROV1 ovarian
[6] = system: MDA-N
[7] = system: OVCAR-4 ovarian
[8] = system: RPMI-8226 leukemia
[9] = system: SF-295 CNS
[10] = system: SK-OV-3 ovarian
[11] = system: SW-620 colon
[12] = system: TK-10 renal
[13] = system: K-562 leukemia

Compound	TGI [1] [µM]	TGI [2] [µM]	TGI [3] [µM]	TGI [4] [µM]	TGI [5] [µM]	TGI [6] [µM]	TGI [7] [µM]	TGI [8] [µM]	TGI [9] [µM]	TGI [10] [µM]	TGI [11] [µM]	TGI [12] [µM]	TGI [13] [µM]	GI50 [3] [nM]
CSC1=C(SC)SC(=C2SC3=C(SC(=C4SCCS4)S3)S2)S1	> 100	> 100	> 100	> 100	> 100	> 100	> 100	> 100	> 100	> 100	> 100	> 100	–	–
CCN(CC)c1ccc2cc(-c3nnc(-c4ccccc4)o3)c(=O)oc2c1	> 100	> 100	> 100	> 100	> 80.8	> 100	> 100	> 100	> 100	21.2	> 100	> 62.6	> 100	–
CC1=C(C(N)=O)C(c2ccncc2)C(C#N)=C2SCC(=O)N12 (stereo not given)	> 100	> 100	> 100	> 100	> 100	> 100	> 100	> 100	> 100	> 100	> 100	–	> 100	–
CN(Nc1cc(=O)[nH]c(=O)[nH]1)c1ccccc1	> 100	> 100	> 100	> 100	> 100	> 100	> 100	> 100	> 100	> 100	> 100	> 100	> 100	–
NC(CCC(=O)NC(CSC(=O)N(O)c1ccc(Br)cc1)C(=O)NCC(=O)O)C(=O)O (stereo not given)	> 50	> 100	> 100	> 100	> 100	> 50	> 100	> 100	> 100	> 100	> 100	> 100	> 100	–
Clc1ccc(Cl)c(Nc2ccnc(SCc3ccccc3)n2)c1	> 100	> 100	> 100	> 100	> 100	> 100	> 100	> 100	> 100	> 100	> 100	> 100	> 100	–
CCC(C)C(NC(=O)C(CCCCN)NC(=O)C(NC(=O)C(CCC(N)=O)NC(=O)C(N)CCCNC(=N)N)C(C)CC)C(=O)NC(Cc1c[nH]c2ccccc12)C(=O)NC(Cc1ccccc1)C(=O)NC(CCC(N)=O)C(=O)NC(CC(N)=O)C(=O)NC(CCCNC(=N)N)C(=O)NC(CCCNC(=N)N)C(=O)NC(CCSC)C(=O)NC(CCCCN)C(=O)NC(Cc1c[nH]c2ccccc12)C(=O)NC(CCCCN)C(=O)NC(CCCCN)C(=O)N1CCCC1C(=O)NC(C)C(=O)NC(CCCCN)C(=O)NC(CCCNC(=N)N)C(=O)NC(CCCCN)C(=O)NC(CC(C)C)C(=O)NC(Cc1ccccc1)C(=O)NCC(=O)O (stereo not given) (H-RQIKIWFQNRRMKWKKPAKRKLFG-OH; configuration not given here)	> 25	> 25	> 25	> 25	> 25	> 25	> 25	15.1	> 25	> 25	> 25	> 25	> 25	–
O=C(NCCCNC(=O)c1ccc2c(O)c(O)ccc2c1)c1ccc2c(O)c(O)ccc2c1	35.2	> 100	> 79.9	> 64.8	40.8	41.4	> 100	> 100	38.2	> 100	> 62.2	> 85.6	> 78.7	–
O=C1/C(=C\c2ccc([N+](=O)[O-])o2)SC2N=C(COc3ccc(Cl)cc3)NN12 (stereo not given)	21.8	32.9	22.3	44.4	9.82	14.3	3.43	> 100	34.1	38.8	9.92	31.4	27	–
O=C(C(=O)N1CCc2ccccc21)c1c[nH]c2ccccc12	> 10	> 10	> 10	> 10	> 10	> 10	> 10	> 10	> 10	> 10	> 10	> 10	> 10	–
Cn1ccc(C(=O)NCCOCCNC(=O)c2ccn(C)c(=O)c2O)c(O)c1=O	> 100	> 100	–	> 100	–	> 100	> 100	> 100	–	–	> 100	> 100	–	–
CC1=C(Br)C(Br)=C(C)S1=O	40.4	49.9	36.9	45.4	> 100	28.7	> 100	24	49.6	65.5	> 100	48.5	> 100	–
N#CSc1nc[nH]c1C(N)=O	> 100	> 81.6	> 100	> 100	> 100	> 100	> 100	44.7	> 100	> 100	> 100	> 100	> 100	–
COC(CN(C(=O)c1ccccc1)C1CCC2(SCCS2)c2[nH]c3ccccc3c21)OC (stereo not given)	> 100	> 100	> 100	> 100	> 100	49	> 100	> 100	13.9	–	> 100	> 100	> 100	–
COc1ccnc2c1C(=O)c1nc3ccccc3c3ccnc-2c13	1.44	0.6	2.62	0.89	0.704	0.904	2.65	0.526	1.15	0.645	–	1.13	0.653	–
CC(=O)N(C(=O)CC(=O)N/N=C\c1ccc(Br)c(N(CCC#N)CCC#N)c1)c1ccc(Cl)cc1	> 100	> 100	> 100	–	> 100	> 100	–	> 100	> 100	> 100	> 100	> 100	> 100	–
C[C@H]1[C@H](C)CC[C@]2(C)CC[C@]3(C)C(=C[C@@H](O)[C@@H]4[C@@]5(C)[C@H](O)[C@@H](O)[C@H](O)C(C)(C)[C@@H]5CC[C@]43C)[C@H]12	> 100	> 100	> 100	> 100	> 100	> 100	–	> 100	> 100	> 100	> 100	–	> 100	22.1

Compound	TGI [1] [µM]	TGI [2] [µM]	TGI [3] [µM]	TGI [4] [µM]	TGI [5] [µM]	TGI [6] [µM]	TGI [7] [µM]	TGI [8] [µM]	TGI [9] [µM]	TGI [10] [µM]	TGI [11] [µM]	TGI [12] [µM]	TGI [13] [µM]	GI50 [3] [nM]
COc1ccc(CCNC2=CC(=O)c3ncccc3C2=O)cc1OC	2.82	12.2	29.6	4.73	7.63	2.45	16.7	> 43	2.21	24.4	5.54	> 86	8.28	–
CN(C)C1=Nc2ccccc2C(=S)N2CSCC12 (stereo not given)	> 100	45	> 100	> 100	52.3	> 100	> 100	> 100	> 100	> 100	> 100	> 100	> 100	–
CC1(C)OCC2OC3(c4nc(C#N)c(N)o4)OC(C)(C)OC3C2O1 (stereo not given)	> 100	> 100	> 100	> 100	> 100	> 100	> 100	> 100	> 100	> 100	> 100	> 100	> 100	–
C=CCN1C[C@H](C)N([C@H](c2ccc(C(=O)N(CC)CCO)cc2)c2cccc(OC)c2)C[C@H]1C	> 100	> 100	> 100	> 100	> 100	> 100	> 100	> 100	> 100	> 100	> 100	> 100	–	–
CCC1OC2C(CC=C(C)C)=C3OC(C)(O)C(C)(CC)C(OC(=O)c4ccccc4)C3=C3OC(=O)C=C1C32 (stereo not given)	47.7	> 100	> 100	> 100	> 100	44.4	–	> 100	> 100	> 100	> 100	> 100	> 100	–
CN1CCOC1(C)CO (stereo not given)	> 100	> 100	> 100	> 100	> 100	> 100	> 100	> 100	> 100	> 100	> 100	> 100	> 100	–
COn1cc(C=O)c2ccccc21	> 100	> 100	> 100	> 100	> 100	62.7	> 100	> 100	> 95.9	> 100	> 100	> 93	> 100	–
CC1=CC(C2/C(=N/O)C=C(C)CC2(C)C)C(O)C(C)(C)C1 (stereo not given)	32.8	28.2	31.4	29.3	32.6	31.9	29.8	33.6	32.9	38.1	41.8	35.2	32.1	–
C=CCNC1=C2C[C@@H](C)C[C@@H](OC)[C@@H](OC(=O)CCCN)[C@H](C)/C=C(\C)[C@@H](OC(N)=O)[C@H](OC)/C=C\C=C(/C)C(=O)NC(=CC1=O)C2=O	25.7	35.3	39.1	21.4	30.1	28.4	48.4	46.9	31.6	28.7	> 60	33.4	> 100	–
c1cc(-c2ncc(-c3ccc4c(c3)CCCO4)o2)ccn1	53.3	> 100	> 100	32	> 100	23.1	> 100	30.4	> 100	93.5	–	89.8	7.05	–
O=C1NC(=O)C(c2c[nH]c3cc(Br)ccc23)=C1c1cn(C(c2ccccc2)(c2ccccc2)c2ccccc2)cn1	38.8	97.4	29.1	27.1	28.5	27.8	> 100	36.8	> 100	> 100	> 100	38.4	45.9	–
CC(C)=CCS(=O)c1ccccc1NC1=CC(=O)CC(C)(C)C1 (stereo not given)	> 100	> 100	> 100	> 100	> 100	> 100	> 100	> 100	–	> 100	> 100	> 100	> 100	–
COC(=O)C1=C(C)NC(C)=C(C(=O)OC)C1c1ccc(/[N+]([O-])=C/c2ccccc2)cc1	40.1	35	> 100	> 100	> 100	> 100	32.6	> 100	> 100	> 100	35.5	> 100	> 100	–
COc1ccc2c(c1C)C(=O)C(O)(CC=C(C)C)O2 (stereo not given)	> 100	> 100	> 100	> 100	> 100	> 100	–	> 100	> 100	> 100	> 100	> 100	> 100	–
Cc1cccc2c1[C@]13OC(C)[C@]4(C)CC5OC(=O)[C@@]1(C)[C@@H]5[C@]34C(=O)O2 (stereo not given in full)	> 100	> 100	> 100	> 100	> 100	> 100	–	> 100	> 100	> 100	> 100	> 100	> 100	–
CCN1c2nc3ccccc3nc2N(CC)c2nc3ccccc3nc21	> 100	> 100	> 100	> 100	> 100	> 100	–	> 100	> 100	> 100	> 100	> 100	> 100	–

— PubChem BioAssay (NCI)
